Assay results reported in ChEMBL document CHEMBL2331080, “Further characterization of a putative serine protease contributing to the γ-secretase cleavage of β-amyloid precursor protein” (Bioorg Med Chem, 2013).
Values belong to the compound of their own block, whether it stands above or below them. Calls of active or inactive are those of the source. The calls are words filed in the database; no cut-off is given here.

Columns and labels:
[1] = molecular target: T1, Gamma-secretase (Homo sapiens) (UniProt Q96BI3+Q9NZ42+Q8WW43+P49768+Q92542+P49810); test: Inhibition of gamma-secretase-mediated betaAPP K670N/M671L mutant cleavage in HEK293 cells assessed as inhibition of amyloid beta40/42 production at 10 to 30 uM after 8 hrs by chemiluminescence assay relative to control; type: cell-based
[2] = test system: HEK293; test: Cytotoxicity against HEK293 cells overexpressing betaAPP K670N/M671L mutant at 10 to 30 uM by LDH release assay; type: cell-based; conditions: human, hek293, 30 µM
[3] = molecular target: T1, Gamma-secretase (Homo sapiens); test: Modulation of gamma-secretase-mediated betaAPP K670N/M671L mutant cleavage in HEK293 cells assessed as inhibition of amyloid beta40/42 production at 10 to 30 uM after 8 hrs by chemiluminescence assay; type: cell-based
[4] = molecular target: T1, Gamma-secretase (Homo sapiens); test: Inhibition of gamma-secretase-mediated betaAPP K670N/M671L mutant cleavage in HEK293 cells assessed as inhibition of amyloid beta40/42 production at 60 uM after 8 hrs by chemiluminescence assay relative to control; type: cell-based
[5] = test system: HEK293; test: Cytotoxicity against HEK293 cells overexpressing betaAPP K670N/M671L mutant at 60 uM by LDH release assay; type: cell-based; conditions: human, hek293, 60 µM
[6] = test system: HEK293; test: Cytotoxicity against HEK293 cells overexpressing betaAPP K670N/M671L mutant at 10 uM by LDH release assay; type: cell-based; conditions: human, hek293, 10 µM
[7] = molecular target: Gamma-secretase; test: Inhibition of gamma-secretase-mediated betaAPP K670N/M671L mutant cleavage in HEK293 cells assessed as inhibition of amyloid beta40/42 production after 8 hrs by chemiluminescence assay; type: cell-based, Homo sapiens
[8] = molecular target: T1, Gamma-secretase (Homo sapiens); test: Modulation of gamma-secretase-mediated betaAPP K670N/M671L mutant cleavage in HEK293 cells assessed as inhibition of amyloid beta40/42 production at 60 uM after 8 hrs by chemiluminescence assay; type: cell-based
[9] = molecular target: T1, Gamma-secretase (Homo sapiens); test: Inhibition of presenilin-dependent gamma secretase complex in HEK293 solubilized membranes using Flag-C100 as substrate assessed as inhibition of amyloid beta40/42 production at 60 uM after 16 hrs by Western blotting analysis; type: cell membranes
[10] = Half life of the compound in buffer; type: physicochemical
[11] = molecular target: T2, Proteasome Macropain subunit MB1 (Homo sapiens, UniProt P28074); test: Inhibition of chymotrypsin-like activity of Proteasome subunit beta 5 (unknown origin) assessed as inhibition of beta-amyloid production by cell-based assay
T2 sequence (P28074 whole entry): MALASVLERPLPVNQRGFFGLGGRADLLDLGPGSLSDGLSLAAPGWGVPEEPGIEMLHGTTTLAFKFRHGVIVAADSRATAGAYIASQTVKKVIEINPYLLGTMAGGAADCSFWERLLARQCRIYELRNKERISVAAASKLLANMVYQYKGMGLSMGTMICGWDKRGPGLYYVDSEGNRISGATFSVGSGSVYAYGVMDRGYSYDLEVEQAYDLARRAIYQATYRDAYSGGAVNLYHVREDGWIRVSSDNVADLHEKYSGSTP

[12] = Half life of the compound in hepes buffer; type: physicochemical

SMILES: COc1oc(=O)c2cc(NCc3ccc4ccccc4c3)ccc2c1Cl
inhibition [1]: > 50%
Activity [2]: Non-toxic
inhibition [3]: inactive

SMILES: CCCCOc1oc(=O)c2cc(N)ccc2c1Cl
Activity [5]: Toxic
Activity [6]: Non-toxic

SMILES: COCCOc1cc2ccc([N+](=O)[O-])cc2c(=O)o1
inhibition [4]: > 50%

SMILES: COc1cc2ccc([N+](=O)[O-])cc2c(=O)o1
inhibition [8]: Active

SMILES: COc1oc(=O)c2cc(NCc3ccccc3[N+](=O)[O-])ccc2c1Cl
inhibition [1]: > 50%
Activity [2]: Non-toxic
inhibition [3]: inactive

SMILES: CC(C)C[C@H](NC(=O)[C@H](Cc1ccccc1)NC(=O)c1cnccn1)B(O)O
inhibition [4]: inactive
inhibition [9]: inactive

SMILES: CCCCOc1oc(=O)c2cc([N+](=O)[O-])ccc2c1Cl
inhibition [4]: inactive
half-life [10]: < 0.333 h

SMILES: CCC(C)Oc1oc(=O)c2cc(N)ccc2c1Cl (centres undefined)
Activity [5]: Toxic
Activity [6]: Non-toxic

SMILES: CCC(C)Oc1oc(=O)c2cc([N+](=O)[O-])ccc2c1Cl (centres undefined)
inhibition [4]: inactive
half-life [10]: < 0.333 h

SMILES: CC(C)C[C@H](NC(=O)[C@H](Cc1ccccc1)NC(=O)c1ccccc1)B(O)O
inhibition [4]: > 50%
IC50 [11]: 0.009 µM
inhibition [9]: inactive

SMILES: COc1cc2ccc(N)cc2c(=O)o1
inhibition [4]: inactive

SMILES: Nc1ccc2cc(OCCBr)oc(=O)c2c1
inhibition [4]: inactive

SMILES: CCOc1oc(=O)c2cc(N)ccc2c1Cl
inhibition [4]: > 50%
half-life [12]: 3.5 h

SMILES: COCCOc1cc2ccc(N)cc2c(=O)o1
inhibition [4]: inactive

SMILES: COc1oc(=O)c2cc(NC(=O)OC34CC5CC(CC(C5)C3)C4)ccc2c1Cl
inhibition [4]: inactive

SMILES: COc1oc(=O)c2cc(NCC(C)(C)C)ccc2c1Cl
Activity [5]: Toxic

SMILES: CC(C)C[C@@H](NC(=O)[C@H](Cc1ccccc1)NC(=O)c1cnccn1)B1O[C@H]2C[C@H]3C[C@H](C3(C)C)[C@@]2(C)O1
inhibition [4]: inactive
inhibition [9]: inactive

SMILES: O=c1oc(OCCBr)cc2ccc([N+](=O)[O-])cc12
inhibition [4]: > 50%

SMILES: CC(C)C[C@@H](NC(=O)[C@H](Cc1ccccc1)NC(=O)c1ccccc1)B1O[C@H]2C[C@H]3C[C@H](C3(C)C)[C@@]2(C)O1
inhibition [4]: > 50%
inhibition [9]: inactive

SMILES: CC(C)C[C@H](NC(=O)[C@H](Cc1ccccc1)NC(=O)c1cnccn1)B1O[C@H]2C[C@H]3C[C@H](C3(C)C)[C@@]2(C)O1
inhibition [4]: inactive
inhibition [9]: inactive

SMILES: COc1oc(=O)c2cc(Nc3cccc([N+](=O)[O-])c3)ccc2c1Cl
inhibition [4]: inactive
Activity [5]: Non-toxic

SMILES: CCOc1oc(=O)c2cc([N+](=O)[O-])ccc2c1Cl
inhibition [4]: inactive
half-life [10]: < 0.333 h

SMILES: COc1oc(=O)c2cc(NCc3cccc4ccccc34)ccc2c1Cl
inhibition [4]: > 50%
Activity [5]: Non-toxic

SMILES: COc1oc(=O)c2cc(NCc3ccc(OCc4ccccc4)cc3)ccc2c1Cl
inhibition [1]: > 50%
Activity [2]: Non-toxic
inhibition [3]: inactive

SMILES: COc1oc(=O)c2cc(NC(=O)OCC3c4ccccc4-c4ccccc43)ccc2c1Cl
inhibition [4]: inactive

SMILES: COc1oc(=O)c2cc(Nc3ccccc3)ccc2c1Cl
Activity [5]: Toxic

SMILES: CC(C)C[C@@H](NC(=O)[C@H](Cc1ccccc1)NC(=O)c1cnccn1)B(O)O
inhibition [4]: inactive
inhibition [9]: inactive

SMILES: CC(C)C[C@@H](NC(=O)[C@H](Cc1ccccc1)NC(=O)c1ccccc1)B(O)O
inhibition [4]: > 50%
inhibition [9]: inactive

SMILES: COc1oc(=O)c2cc(NCc3ccc([N+](=O)[O-])cc3)ccc2c1Cl
inhibition [1]: > 50%
inhibition [4]: > 50%
IC50 [7]: 10 µM
Activity [2]: Non-toxic

SMILES: COc1oc(=O)c2cc(NC/C=C\c3ccccc3)ccc2c1Cl
inhibition [4]: inactive
Activity [5]: Non-toxic

SMILES: COc1oc(=O)c2cc(NC(=O)OCc3ccccc3)ccc2c1Cl
inhibition [4]: inactive

SMILES: CC(C)C[C@H](NC(=O)[C@H](Cc1ccccc1)NC(=O)c1ccccc1)B1O[C@H]2C[C@H]3C[C@H](C3(C)C)[C@@]2(C)O1
inhibition [4]: > 50%
IC50 [7]: 10 µM
inhibition [9]: inactive

More lines, main results first:

inhibition [1]: > 50%
SMILES: CCCCC(CC)CNc1ccc2c(Cl)c(OC)oc(=O)c2c1 (centres undefined)
Activity [2]: Toxic

inhibition [4]: > 50%
SMILES: COc1oc(=O)c2cc(NCCC(C)C)ccc2c1Cl
Activity [5]: Non-toxic

inhibition [4]: inactive
SMILES: CCCCCCCC(=O)Nc1ccc2c(Cl)c(OC)oc(=O)c2c1

inhibition [4]: inactive
SMILES: COc1oc(=O)c2cc(NC(C)=O)ccc2c1Cl

inhibition [1]: > 50%
inhibition [4]: > 50%
IC50 [7]: 10 µM
SMILES: COc1oc(=O)c2cc(NCC(C)C)ccc2c1Cl
Activity [2]: Non-toxic

inhibition [1]: > 50%
SMILES: COc1oc(=O)c2cc(NCC3CCCCC3)ccc2c1Cl
Activity [2]: Toxic

inhibition [4]: inactive
SMILES: COc1ccc(CNc2ccc3c(Cl)c(OC)oc(=O)c3c2)cc1
Activity [5]: Non-toxic

inhibition [8]: Active
SMILES: COc1oc(=O)c2cc(NC(=O)C(C)(C)C)ccc2c1Cl

inhibition [4]: inactive
SMILES: C=CCOC(=O)Nc1ccc2c(Cl)c(OC)oc(=O)c2c1

inhibition [4]: inactive
SMILES: COc1oc(=O)c2cc(NC(=O)C(F)(F)C(F)(F)F)ccc2c1Cl

inhibition [4]: inactive
SMILES: COc1oc(=O)c2cc(NC(=O)OC(C)(C)C)ccc2c1Cl

inhibition [4]: inactive
SMILES: COc1oc(=O)c2cc(NCc3ccccc3)ccc2c1Cl
Activity [5]: Non-toxic

IC50 [7]: 10 µM
SMILES: CCNc1ccc2c(Cl)c(OC)oc(=O)c2c1

inhibition [1]: > 50%
inhibition [8]: Active
SMILES: CCCCCCCCCNc1ccc2c(Cl)c(OC)oc(=O)c2c1
Activity [2]: Non-toxic

inhibition [1]: > 50%
SMILES: COc1oc(=O)c2cc(NCCC(C)(C)C)ccc2c1Cl
Activity [2]: Toxic

inhibition [4]: inactive
SMILES: COc1oc(=O)c2cc(NC(=O)OCC(Cl)(Cl)Cl)ccc2c1Cl

inhibition [4]: inactive
SMILES: COc1oc(=O)c2cc(NC(=O)CCCC(=O)O)ccc2c1Cl

inhibition [4]: inactive
SMILES: CCOC(=O)Nc1ccc2c(Cl)c(OC)oc(=O)c2c1

inhibition [4]: inactive
SMILES: COc1oc(=O)c2cc(NCCCc3ccccc3)ccc2c1Cl
Activity [5]: Non-toxic

half-life [12]: 3.5 h
SMILES: COc1oc(=O)c2cc(N)ccc2c1Cl

inhibition [4]: > 50%
SMILES: CCCCCCNc1ccc2c(Cl)c(OC)oc(=O)c2c1
Activity [5]: Non-toxic
